Our source for the IC50 values is patent US9062051B2, “Compounds and pharmaceutical compositions thereof for the treatment of proliferative disorders” (GALAPAGOS NV, priority 2014, dated 2015).

The term IC50 denotes the concentration that gives 50% inhibition.

Molecules are shown by their SMILES.

Holding throughout (type): biochemical
Test [1] concerns the target T1, Recombinant EphA7 (Homo sapiens, UniProt Q15375).
T1 construct: purchased Carna 08-126
The test is described as follows: EphA7 assay (33P incorporation into poly GT, filter plate). The conditions noted are these: EphA7 potency; 0.15 μM ATP; read-out: IC50. As for the experimental part:
The principle of the assay consists of the measurement of incorporated ^33P into the substrate poly GT when phosphorylated by the enzyme EphA7 using [^33P]-γ-ATP and ATP. Unincorporated ^33P is removed by loading the samples on a filter plate (using a harvester, Perkin Elmer) and 6 subsequent washing steps. ^33P incorporated in polyGT is measured on a Topcount after addition of microscint to the filter plates (Perkin Elmer).
Recombinant EphA7 (Carna Cat#08-126, 2 ng per well) was incubated with 0.1 mg/mL Poly(Glu,Tyr)sodium salt (4:1), MW 20 000-50 000 (Sigma catalog number P0275) in kinase reaction buffer (10 mM MOPS pH 7.2, 5 mM DTT, 0.01% Triton-X100, 5 mM MnCl2, 0.5 mM Na3VO4, 5 mM beta-glycerolphosphate), 0.15 μM non-radioactive ATP, 0.125 μCi/25 μl ^33P-gamma-ATP (Perkin Elmer, catalog number NEG602K) final concentrations with or without 5 μL containing test compound or vehicle (DMSO, 1% final concentration), in a total volume of 25 μL, in a polypropylene 96-well plate (Greiner, V-bottom). After 90 min at 30° C., reactions were stopped by adding of 25 μL/well of 150 mM phosphoric acid. All of the terminated kinase reaction was transferred to prewashed (75 mM phosphoric acid) 96 well filter plates (Perkin Elmer catalog number 6005177) using a cell harvester (Perkin Elmer). Plates were washed 6 times with 300 μL per well of a 75 mM phosphoric acid solution and the bottom of the plates was sealed. 40 μL/well of Microscint-20 was added, the top of the plates was sealed and readout was performed using the Topcount (Perkin Elmer). The ability of a test compound to inhibit the kinase activity was determined using counts per minutes (cpm) measured by the Topcount as:
(§1) Cpm (cpd): cpm determined for sample with test compound present
(§2) Cpm (control): cpm determined for sample with positive control inhibitor (10 μM staurosporine)
(§3) Cpm (vehicle): cpm determined in the presence of vehicle (1% DMSO)
Dose dilution series were prepared for the compounds enabling the testing of dose-response effects in the EphA7 assay and the calculation of the IC50 for each compound. Each compound was routinely tested at concentration of 20 μM followed by a 1/5 serial dilution, 10 points in a final concentration of 1% DMSO. When potency of compound series increased, more dilutions may be prepared and/or the top concentration may be lowered (e.g. 5 μM, 1 μM).

Test [2] has as its target T2, EphA2 (UniProt Ref: P29317) (Homo sapiens, UniProt P29317).
T2 construct: purchased Reaction Biology
Briefly: EphA2 assay (Reaction Biology HotSpot radioactive kinase assay). The conditions noted are these: ATP 10 μM; read-out: EphA2 potency IC50. As for the experimental part: Inhibition of EphA2 (UniProt Ref: P29317) by a test compound is determined by a commercially available Reaction Biology proprietary nanoliter radioactive HotSpot^SM assay (Reaction Biology, One great valley parkway, Suite 2, Malvern Pa., 19355, USA). The principle of the assay consists of the measurement of incorporated ^33P into poly[Glu:Tyr] (4:1) (0.2 mg/mL) when the substrate is phosphorylated by the enzyme using [^33P]-γ-ATP and ATP (10 μM).
To determine the IC50, a serial dilution of compound is tested starting from 10, or 3 μM (highest dilution) with a 1/3 dilution.

Test [3] addresses T3, Recombinant EphB2 (Homo sapiens, UniProt P29323).
T3 construct: purchased Carna 08-129
T3 sequence (P29323 19-986 isoform P29323-2 limits assumed): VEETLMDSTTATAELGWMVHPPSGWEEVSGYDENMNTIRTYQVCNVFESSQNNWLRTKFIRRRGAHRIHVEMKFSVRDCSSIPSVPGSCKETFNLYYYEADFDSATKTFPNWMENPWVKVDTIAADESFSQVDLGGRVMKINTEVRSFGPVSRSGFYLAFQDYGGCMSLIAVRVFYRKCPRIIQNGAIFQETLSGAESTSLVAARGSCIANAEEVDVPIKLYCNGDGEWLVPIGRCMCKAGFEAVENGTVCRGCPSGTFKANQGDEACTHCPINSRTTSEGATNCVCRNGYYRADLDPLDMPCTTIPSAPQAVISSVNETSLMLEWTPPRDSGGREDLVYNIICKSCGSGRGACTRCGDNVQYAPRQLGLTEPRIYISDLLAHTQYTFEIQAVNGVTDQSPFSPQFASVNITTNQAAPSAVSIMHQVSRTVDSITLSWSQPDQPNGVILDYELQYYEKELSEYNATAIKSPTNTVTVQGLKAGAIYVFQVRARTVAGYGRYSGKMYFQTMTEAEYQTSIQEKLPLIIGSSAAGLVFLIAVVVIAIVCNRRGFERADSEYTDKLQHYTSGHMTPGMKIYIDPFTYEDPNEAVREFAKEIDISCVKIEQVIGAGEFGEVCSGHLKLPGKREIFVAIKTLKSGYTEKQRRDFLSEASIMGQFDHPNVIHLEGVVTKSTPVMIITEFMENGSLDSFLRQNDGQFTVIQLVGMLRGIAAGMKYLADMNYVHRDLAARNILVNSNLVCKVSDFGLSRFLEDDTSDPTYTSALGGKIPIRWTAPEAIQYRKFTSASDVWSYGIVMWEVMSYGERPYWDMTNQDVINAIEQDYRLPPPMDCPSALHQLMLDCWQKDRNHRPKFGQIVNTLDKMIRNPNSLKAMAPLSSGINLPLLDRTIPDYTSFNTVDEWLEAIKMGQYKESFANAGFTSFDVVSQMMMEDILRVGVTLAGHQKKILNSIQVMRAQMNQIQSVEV
Briefly: EphB2 assay (33P incorporation into poly GT, filter plate). The conditions noted are these: read-out: EphB2 potency IC50. The procedure:
The principle of the assay consists of the measurement of incorporated ^33P into the substrate poly GT when phosphorylated by the enzyme EphB2 using [^33P]-γ-ATP and ATP. Unincorporated ^33P is removed by loading the samples on a filter plate (using a harvester, Perkin Elmer) and 6 subsequent washing steps. ^33P incorporated in polyGT is measured on a Topcount after addition of microscint to the filter plates (Perkin Elmer).
Recombinant EphB2 (Carna Cat#08-129, 0.6 ng per well) was incubated with 0.05 mg/mL Poly(Glu,Tyr)sodium salt (4:1), MW 20 000-50 000 (Sigma catalog number P0275) in kinase reaction buffer (10 mM MOPS pH 7.2, 5 mM DTT, 0.01% Triton-X100, 5 mM MnCl2, 0.5 mM Na3VO4, 5 mM beta-glycerolphosphate), 0.5 μM non-radioactive ATP, 0.25 μCi/25 μl ^33P-gamma-ATP (Perkin Elmer, catalog number NEG602K) final concentrations with or without 5 μL containing test compound or vehicle (DMSO, 1% final concentration), in a total volume of 25 μL, in a polypropylene 96-well plate (Greiner, V-bottom). After 45 min at 30° C., reactions were stopped by adding of 25 μL/well of 150 mM phosphoric acid. The experiment was then conducted as described for EphA7. The ability of a test compound to inhibit the kinase activity was determined using counts per minutes (cpm) measured by the Topcount as:
as §1, §2, §3
Dose dilution series were prepared for the compounds enabling the testing of dose-response effects in the EphB2 assay and the calculation of the IC50 for each compound. Each compound was routinely tested at concentration of 20 μM followed by a 1/5 serial dilution, 10 points in a final concentration of 1% DMSO. When potency of compound series increased, more dilutions may be prepared and/or the top concentration may be lowered (e.g. 5 μM, 1 μM).

T2 sequence (P29317 24-976): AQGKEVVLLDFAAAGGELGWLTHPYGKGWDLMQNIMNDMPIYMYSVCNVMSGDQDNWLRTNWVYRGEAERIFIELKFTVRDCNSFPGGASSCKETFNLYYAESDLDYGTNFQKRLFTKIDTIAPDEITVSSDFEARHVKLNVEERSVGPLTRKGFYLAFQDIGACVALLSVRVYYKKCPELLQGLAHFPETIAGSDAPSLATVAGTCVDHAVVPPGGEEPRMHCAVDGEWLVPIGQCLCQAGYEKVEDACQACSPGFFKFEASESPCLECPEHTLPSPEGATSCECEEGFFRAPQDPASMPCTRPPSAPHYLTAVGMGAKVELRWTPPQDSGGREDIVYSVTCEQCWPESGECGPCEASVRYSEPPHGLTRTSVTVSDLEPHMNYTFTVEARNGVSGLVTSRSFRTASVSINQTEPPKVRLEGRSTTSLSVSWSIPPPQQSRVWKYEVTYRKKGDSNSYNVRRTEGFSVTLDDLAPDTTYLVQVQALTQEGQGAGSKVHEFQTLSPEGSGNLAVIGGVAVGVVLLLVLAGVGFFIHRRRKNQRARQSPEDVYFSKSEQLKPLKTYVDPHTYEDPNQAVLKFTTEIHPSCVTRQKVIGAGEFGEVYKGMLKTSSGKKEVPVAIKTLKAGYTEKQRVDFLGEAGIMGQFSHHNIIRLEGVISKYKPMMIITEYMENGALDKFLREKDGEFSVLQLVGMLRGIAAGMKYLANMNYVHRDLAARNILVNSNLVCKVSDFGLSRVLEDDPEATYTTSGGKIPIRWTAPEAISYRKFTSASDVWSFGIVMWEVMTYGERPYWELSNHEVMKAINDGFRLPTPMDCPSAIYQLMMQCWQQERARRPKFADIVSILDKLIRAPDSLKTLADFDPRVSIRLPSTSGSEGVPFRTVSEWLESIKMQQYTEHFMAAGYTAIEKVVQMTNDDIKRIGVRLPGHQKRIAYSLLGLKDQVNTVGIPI
T1 sequence (Q15375 579-998 limits assumed): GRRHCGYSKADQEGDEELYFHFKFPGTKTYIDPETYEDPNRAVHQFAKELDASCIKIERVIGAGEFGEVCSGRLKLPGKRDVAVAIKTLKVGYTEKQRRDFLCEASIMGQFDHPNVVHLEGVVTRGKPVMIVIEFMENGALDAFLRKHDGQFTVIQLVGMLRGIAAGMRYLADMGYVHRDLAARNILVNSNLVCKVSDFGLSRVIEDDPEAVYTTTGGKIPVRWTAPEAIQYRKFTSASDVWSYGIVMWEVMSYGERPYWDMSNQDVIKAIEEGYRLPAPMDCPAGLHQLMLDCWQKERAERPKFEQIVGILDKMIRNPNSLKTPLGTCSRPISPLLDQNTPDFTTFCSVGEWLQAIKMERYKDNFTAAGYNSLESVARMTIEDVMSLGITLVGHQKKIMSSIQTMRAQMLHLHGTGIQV

With `Cc1cc(OCCN2CCOCC2)cc(C(=O)Nc2ccc(C)c(-c3ccc4c(C(C)O)n[nH]c4n3)c2)c1` (stereo not shown) [Compound 28, N-{3-[3-(1-Hydroxy-ethyl)-1H-pyrazolo[3,4-b]pyridin-6-yl]-4-methyl-phenyl}-3-methyl-5-(2-morpholin-4-yl-ethoxy)-benzamide], the IC50 is more than 1000 nM in test [1], 25 to 50 nM in test [2] and 0.01 to 25 nM in test [3].

Turning to `CCc1n[nH]c2nc(-c3cc(NC(=O)c4cc(C)cc(OCCN)c4)ccc3C)ccc12` [Compound 30, 3-(2-Amino-ethoxy)-N-[3-(3-ethyl-1H-pyrazolo[3,4-b]pyridin-6-yl)-4-methyl-phenyl]-5-methyl-benzamide], the IC50 in test [1] is 250 to 500 nM; in test [2], 0.01 to 25 nM; in test [3], 0.01 to 25 nM.

In the case of `CCc1n[nH]c2nc(-c3cc(NC(=O)c4cc(C)cc(OCCCN)c4)ccc3C)ccc12` [Compound 31, 3-(3-Amino-propoxy)-N-[3-(3-ethyl-1H-pyrazolo[3,4-b]pyridin-6-yl)-4-methyl-phenyl]-5-methyl-benzamide], the IC50 fell in the range of 0.01 to 250 nM in test [1], 0.01 to 25 nM in test [2] and 0.01 to 25 nM in test [3].

With `COc1cc(OC)cc(C(=O)Nc2cnc(C)c(-c3ccc4c(C5CC5)n[nH]c4n3)c2)c1` [Compound 34, N-(5-(3-cyclopropyl-1H-pyrazolo[3,4-b]pyridin-6-yl)-6-methylpyridin-3-yl)-3,5-dimethoxybenzamide], the half-maximal inhibitory concentration (IC50) is more than 1000 nM in test [1] and 0.01 to 25 nM in test [3].

Regarding `CCc1n[nH]c2nc(-c3cc(NC(=O)c4cc(OCCN5CCOCC5)cc(C(F)(F)F)c4)ccc3C)ccc12` [Compound 36, N-[3-(3-Ethyl-1H-pyrazolo[3,4-b]pyridin-6-yl)-4-methyl-phenyl]-3-(2-morpholin-4-yl-ethoxy)-5-trifluoromethyl-benzamide], the IC50 in test [1] was 500 to 1000 nM; in test [2], 0.01 to 25 nM; in test [3] it was more than 100 nM.

Regarding `CCc1n[nH]c2nc(-c3cc(NC(=O)c4cc(OC)cc(C5CC5)c4)cnc3C)ccc12` [Compound 38, 3-Cyclopropyl-N-[5-(3-ethyl-1H-pyrazolo[3,4-b]pyridin-6-yl)-6-methyl-pyridin-3-yl]-5-methoxy-benzamide], the IC50 in test [1] is 250 to 500 nM; in test [2], 0.01 to 25 nM; in test [3] it was more than 100 nM.

On to `CCc1n[nH]c2nc(-c3cc(NC(=O)c4cc(OC)cc(OCCN5CCOCC5)c4)cnc3C)ccc12` [Compound 40, N-[5-(3-Ethyl-1H-pyrazolo[3,4-b]pyridin-6-yl)-6-methyl-pyridin-3-yl]-3-methoxy-5-(2-morpholin-4-yl-ethoxy)-benzamide], for which the IC50 was more than 1000 nM in test [1] and more than 100 nM in test [3].

Consider `CCc1n[nH]c2nc(-c3cc(NC(=O)c4cccc(C(F)(F)F)c4)cnc3C)ccc12` [Compound 42, N-[5-(3-Ethyl-1H-pyrazolo[3,4-b]pyridin-6-yl)-6-methyl-pyridin-3-yl]-3-trifluoromethyl-benzamide], for which the IC50 is more than 1000 nM in test [1], 50 to 100 nM in test [2] and more than 100 nM in test [3].

Turning to `CCc1n[nH]c2nc(-c3cc(NC(=O)c4cc(OC)cc(OCCCN)c4)ccc3C)ccc12` [Compound 45, 3-(3-Amino-propoxy)-N-[3-(3-ethyl-1H-pyrazolo[3,4-b]pyridin-6-yl)-4-methyl-phenyl]-5-methoxy-benzamide], the half-inhibitory concentration (IC50) in test [1] fell in the range of 250 to 500 nM; in test [2], 0.01 to 25 nM; in test [3] it was 0.01 to 25 nM.

In the case of `CCc1n[nH]c2nc(-c3cc(NC(=O)c4cc(OC)cc(OCCCN)c4)cnc3C)ccc12` [Compound 46, 3-(3-Amino-propoxy)-N-[5-(3-ethyl-1H-pyrazolo[3,4-b]pyridin-6-yl)-6-methyl-pyridin-3-yl]-5-methoxy-benzamide], the results for the IC50 in test [1], in test [2] and in test [3] were 500 to 1000 nM, 0.01 to 25 nM and 25 to 50 nM, respectively.

Consider `Cc1ccc(NC(=O)c2cccc(C(F)(F)F)c2)cc1-c1ccc2c([C@@H](C)O)n[nH]c2n1` [Compound 56, N-{3-[3-((R)-1-Hydroxy-ethyl)-1H-pyrazolo[3,4-b]pyridin-6-yl]-4-methyl-phenyl}-3-trifluoromethyl-benzamide], for which the IC50 was more than 1000 nM in test [1], 0.01 to 25 nM in test [2] and 0.01 to 25 nM in test [3].
